Values of other authors in patent publication US20130338098A1, “Topical Analgesic Compositions Containing Aliphatic Polyamines and Methods of Using Same” (Dermal Therapy (Barbados) Inc., priority 2000, published 2013).

Details: orally, intravenously, intraperitoneally, and intramuscularly

Which Toxicity does the source give for `NCCCCN` [putrescine, 1,4-diaminobutane] here?
The Toxicity was “very low toxicity”.
